Measured values published in patent US20070154540A1 (KMSI CO., LTD., priority 2003, published 2007).

Assays:
[1] = test system: osteoarthritis-induced New Zealand white rabbits; assay: Visual observation of joint cartilage in ACLT osteoarthritis-induced rabbits; assay type: in vivo
Source text: To prepare an osteoarthritis animal model, New Zealand white rabbits underwent anterior cruciate ligament transection (ACLT) in joints of their two hind legs. […] The following Examples 3 to 10 were all performed using joints of the osteoarthritis-induced New Zealand white rabbits prepared as in this Example 2. […] In contrast, in the PBS control group, the surface of joint cartilage was very rough due to the damage of the joint cartilage.

[2] = test system: osteoarthritis-induced New Zealand white rabbits; assay: Proteoglycan levels in joint synovial fluids (1,9-dimethylmethylene blue assay); assay type: in vivo
Source text: (§1) To prepare an osteoarthritis animal model, New Zealand white rabbits underwent anterior cruciate ligament transection (ACLT) in joints of their two hind legs. After three days, the rabbits were forced to sustain movement for four weeks in a space of 5×5 m^3 to induce substantial osteoarthritis. […] The following Examples 3 to 10 were all performed using joints of the osteoarthritis-induced New Zealand white rabbits prepared as in this Example 2.
In the joint synovial fluids prepared in Example 3, proteoglycan levels were measured using a 1,9-dimethylmethylene blue assay (Houselmann H. J. et al., Am. J. Physiol. 271:C742-752, (1996)). A synovial fluid sample of 50 μl was mixed with 250 μl of 1,9-dimethylmethylene blue (34,108-8, Aldrich), and absorbance was measured at 530 nm using a spectrophotometer (Power Wave X340, Bio-Tek).

[3] = test system: osteoarthritis-induced New Zealand white rabbits; assay: H&E staining and safranin-O staining of joint cartilage; assay type: in vivo; details: apigenin treatment group compared to control group
Source text: Distal femurs were collected from experimental animals and fixed with 4% formalin (F8775, Sigma) for over 24 hrs. An area of the distal femur to be analyzed was sectioned into a 5-mm thickness, decalcified with 5% nitric acid (25, 811-3, Sigma) for over 24 hrs and embedded into paraffin to provide a paraffin block. The paraffin block was sectioned, and the resulting 4-μm sections were subjected to H&E staining and staining with a cartilage-specific dye, safranin-O (S2255, Sigma), and observed under an optical microscope to evaluate the condition of cartilage.

[4] = test system: osteoarthritis-induced New Zealand white rabbits; assay: Distribution and number of synovial cells; assay type: in vivo
Method: as §1
Tissues were prepared according to the same method as in Example 9 and evaluated for cell number and the condition of their surfaces. Cell number was measured at a site 120 μm in depth.

RAW 264.7 cells = assay: LPS-induced NO production of macrophages (Griess); assay type: cell-based, mice; details: 16 hrs, LPS alone 40, non-treated 2
Method: A macrophage cell line derived from mice, RAW 264.7 (KCLB 40071), was purchased from the Korean Cell Line Bank. RAW 264.7 cells were seeded in a density of 3×10^6 cells onto 60-mm culture dishes containing DMEM (Dulbecco's Modified Eagle Medium, 12800-017, Gibco) supplemented with 10% FBS (fetal bovine serum, 26140-079, Gibco), 100 U/ml of penicillin and 100 μg/ml streptomycin (15140-122, Gibco), and cultured at 37° C. under 5% CO2 and humidity for 24 hrs. To induce NO production, RAW 264.7 cells were treated with 500 ng/ml of an E. coli cell wall component, lipopolysaccharide (LPS, […], Sigma). […] Herein, LPS was dissolved in distilled water, and apigenin was dissolved in DMSO. Then, the culture medium and a Griess reagent were mixed at a ratio of 1:1 (100 μl: 100 μl) and allowed to stand at room temperature for 10 min. Thereafter, absorbance was measured at 540 nm using a spectrophotometer (Power Wave X340, Bio-Tek).

COX-2 = assay: Western blotting of COX-2 expression in LPS-treated RAW 264.7; assay type: cell-based, mice; details: LPS treatment = 100%, upon apigenin treatment
Method: A macrophage cell line derived from mice, RAW 264.7 (KCLB 40071), was purchased from the Korean Cell Line Bank. RAW 264.7 cells were seeded in a density of 3×10^6 cells onto 60-mm culture dishes containing DMEM (Dulbecco's Modified Eagle Medium, 12800-017, Gibco) supplemented with 10% FBS (fetal bovine serum, 26140-079, Gibco), 100 U/ml of penicillin and 100 μg/ml streptomycin (15140-122, Gibco), and cultured at 37° C. under 5% CO2 and humidity for 24 hrs. To induce NO production, RAW 264.7 cells were treated with 500 ng/ml of an E. coli cell wall component, lipopolysaccharide (LPS, L2654, Sigma). […] Herein, LPS was dissolved in distilled water, and apigenin was dissolved in DMSO. Then, the culture medium and a Griess reagent were mixed at a ratio of 1:1 (100 μl: 100 μl) and allowed to stand at room temperature for 10 min. Thereafter, absorbance was measured at 540 nm using a spectrophotometer (Power Wave X340, Bio-Tek).
RAW 264.7 cells were treated under the same conditions as in Example 12. […] Herein, for IκBα expression, the cells were treated with LSP for only two hours. […] After protein concentrations in cell lysates were measured, […] protein samples were separated on an 8-16% SDS (sodium dodecyl sulfate) polyacrylamide gel (EC60452, NOVEX). […]

cancer cells = details: background statement; cited from earlier work

In the case of O=c1cc(-c2ccc(O)cc2)oc2cc(O)cc(O)c12 [apigenin, 4′,5,7-trihydroxyflavone], the “surface of joint cartilage (visual)” value ([1]; apigenin-treated right joint, 50 μg once per week for four weeks) was “visually smooth”, the “cartilage in the left joint of the test group (visual)” value ([1]; non-treated left joint of apigenin group) was “improved to some extent” and the “Proteoglycan levels in joint synovial fluids” value (“Proteoglycan levels” below) ([2]; apigenin-treated right leg (+), four weeks after drug injection) was “about 12.22 μg/ml”. The “Proteoglycan levels” value ([2]; apigenin-treated right leg (+), four weeks after drug injection, listed as Apigenin) was 12.22 ± 0.4 µg/mL, the “Proteoglycan levels” value ([2]; apigenin-treated right leg (+), two weeks after drug injection) was 10.32 ± 0.66 µg/mL and the “Proteoglycan levels” value ([2]; non-treated left leg (−) of apigenin treatment group, four weeks after drug injection) was 34.09 ± 0.24 µg/mL. The “Proteoglycan levels” value ([2]; non-treated left leg (−) of apigenin treatment group, two weeks after drug injection) was 22.90 ± 0.86 µg/mL, the “condition of cartilage by H&E and safranin-O staining” value [3] was “damaged areas of cartilage were found to be restored” and the “decrease in synovial cell number compared to the control group” value ([4]; after osteoarthritis induction) was “about 34.5%”. The “number of synovial cells” value ([4]; after osteoarthritis induction, measured at a site 120 μm in depth, control group 632.3) was 406.6, the “surface of synovial membrane section” value ([4]; right leg, compared with control group treated with physiological saline) was “relatively smooth surface” and the Nitrite (RAW 264.7 cells; LPS 500 ng/ml + apigenin 10 μM) was 32.2 µM. It also gave a Nitrite (RAW 264.7 cells; LPS 500 ng/ml + apigenin 20 μM) of 22.2 µM, a Nitrite (RAW 264.7 cells; LPS 500 ng/ml + apigenin 40 μM) of 10.1 µM and a Nitrite (RAW 264.7 cells; LPS 500 ng/ml + apigenin 80 μM) of 9 µM. The COX-2 expression level (COX-2) was 0% and the “concentration at which apigenin acts effectively (anticancer activity)” value (cancer cells) was “lower than 50 μM”.
